Test results as given in ChEMBL document CHEMBL1123444, “Analgesic actions of 3-substituted 6-tert-butyl-1,2,3,4,5,6-hexahydro-2,6-methano-3-benzazocines” (1986).
Activity calls are given as the source filed them. The rule behind the calls is not given here.

What was measured:
[1] = species: Mus musculus; assay: Compound was evaluated for analgesic activity using mouse hotplate test; format: functional
[2] = system: Mus musculus; assay: Compound was evaluated for analgesic activity using mouse hotplate test, at the dose 20 mg/kg; Inactive; format: functional, organism-based; set-up: dose 20 mg/kg
[3] = system: Mus musculus; assay: Compound was evaluated for analgesic activity using mouse hotplate test, at the dose 50 mg/kg; Inactive; format: functional, organism-based; set-up: dose 50 mg/kg
[4] = system: Mus musculus; assay: Compound was evaluated for analgesic activity using mouse hotplate test at 7.1-13.8 mg/kg dose; format: functional

For `CN1CCC2(C(C)(C)C)CC1Cc1ccccc12` (stereo not given), the ED50 [1] was 14.1 mg/kg.

`CC(C)(C)C12CCN(CC3CC3)C(Cc3ccccc31)C2` (stereo not given) was tested, and the ED50 [2] was “inactive”.

In the case of `CN1CC[C@]23c4c5ccc(O)c4O[C@H]2[C@@H](O)C=C[C@H]3[C@H]1C5.CN1CC[C@]23c4c5ccc(O)c4O[C@H]2[C@@H](O)C=C[C@H]3[C@H]1C5.O=S(=O)(O)O`, the ED50 [1] is reported as 1.2 mg/kg.

For `C=CCN1CCC2(C(C)(C)C)CC1Cc1ccccc12` (stereo not given), the ED50 [3] was “inactive”.

For `CC(C)(C)C12CCN(CCc3ccccc3)C(Cc3ccccc31)C2` (stereo not given), the ED50 [4] was 9.9 mg/kg.
